In test [1] the target is T1, BaF3-ETV6-NTRK3 (Homo sapiens, UniProt Q16288).
T1 construct: fused on or other part: P41212 (Transcription factor ETV6)
The test is described as follows: Cell proliferation inhibition (CCK-8), BaF3-ETV6-NTRK3 stable strain. Particulars: BaF3-ETV6-NTRK3, 72 hours. The class given is cell-based, mouse. As for the experimental part: (§1) The brief steps of stable strain construction are as follows: construct a pCDNA3.1(+) plasmid vector carrying genes such as CD74-NTRK1, ETV6-NTRK2 and ETV6-NTRK3; the plasmid was electroporated into Ba/F3 cells using the Amaxa® Cell Line Nucleofector® Kit V; 48 hours after electroporated, G418 with a final concentration of 1000 μg/ml was added for screening for two weeks, and then IL3 was removed, and continued screening to obtain polyclonal stable strains; then single clones were selected by a limiting dilution method. The stable strains were then identified using positive drugs, WB and gene sequencing; and the monoclonal clones that were identified as completely correct may be used for the study of cell proliferation inhibitory activity of inhibitors.
(§2) Cell proliferation inhibition activity study: the cells in the logarithmic growth phase were seeded into 96-well plates at 8000-12000 cells/well, and inhibitors at different concentrations (0-10 μM) were added the next day, and incubation was continued for 72 hours; then 10 μL of CCK-8 reagent was added to each well, and the incubation was continued for 1-3 hours; and then use a super microplate reader to measure their absorbance values at 450 nm and 650 nm. The half-inhibition concentration (IC50) was calculated using GraphPad Prism 8.0.0.

The target of test [2] is T2, TRKB (Homo sapiens, UniProt Q16620).
T2 construct: purchased life technologies PV3616
T2 sequence (Q16620 32-822): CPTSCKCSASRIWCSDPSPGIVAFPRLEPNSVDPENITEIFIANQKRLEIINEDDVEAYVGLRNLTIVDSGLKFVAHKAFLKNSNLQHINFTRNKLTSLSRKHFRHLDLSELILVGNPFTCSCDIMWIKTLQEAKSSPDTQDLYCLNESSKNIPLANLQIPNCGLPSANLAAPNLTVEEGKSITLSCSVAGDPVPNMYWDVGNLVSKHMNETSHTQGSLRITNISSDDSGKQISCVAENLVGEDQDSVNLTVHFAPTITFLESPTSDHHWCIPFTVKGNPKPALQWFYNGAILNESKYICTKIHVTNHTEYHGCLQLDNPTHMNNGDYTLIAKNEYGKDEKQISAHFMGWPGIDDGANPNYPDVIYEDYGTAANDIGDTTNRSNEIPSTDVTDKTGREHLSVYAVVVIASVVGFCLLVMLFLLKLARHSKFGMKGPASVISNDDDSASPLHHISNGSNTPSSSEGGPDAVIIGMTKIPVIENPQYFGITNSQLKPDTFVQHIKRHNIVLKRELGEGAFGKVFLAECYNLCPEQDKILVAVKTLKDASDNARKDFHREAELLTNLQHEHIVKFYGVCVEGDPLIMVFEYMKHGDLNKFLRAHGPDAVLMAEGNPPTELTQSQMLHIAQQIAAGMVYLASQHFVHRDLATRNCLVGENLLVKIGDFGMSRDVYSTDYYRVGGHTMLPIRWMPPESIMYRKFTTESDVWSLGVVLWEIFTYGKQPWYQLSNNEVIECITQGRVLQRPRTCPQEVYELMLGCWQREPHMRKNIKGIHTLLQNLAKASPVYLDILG
The test is described as follows: Z′-LYTE kinase activity assay, TRKB. The following applies: ATP 25 uM. It is filed as biochemical. The text has this:
(§3) Kinase activity assay: Z′-LYTE™ technology (detection by fluorescence, enzyme-conjugated format, based on the difference in sensitivity of phosphorylated and non-phosphorylated peptides to proteolytic cleavage) was applied, and using the principle of fluorescence resonance energy transfer (FRET), a Z′-LYTE™ FRET peptide substrate (Z′-LYTE™ Tyrosine 1 Peptide Substrate, Invitrogen, PV3190), and a secondary reaction were used to detect the inhibitory activity of the compounds on TRKs (TRK1, TRK2, TRK3) (life technologies, PV3144, PV3616, PV3617).
(§4) Enzymatic reaction: In a 384-well plate, 5 μL of an enzyme-substrate system (50 mM HEPES pH 7.5, 0.01% BRIJ-35, 10 mM MgCl2, 1 mM EGTA, 2 μM Tyr 01 Peptide Substrate) was added and 5 nL of compound (concentration gradient) was transferred thereto by using the echo520 ultramicro liquid pipetting system. […] After shaking and mixing, centrifuging was performed. A reaction was carried out at 30° C. in the dark for 1.5 hours.
(§5) The data were analyzed as follows:
(§6) Phosphorylation ratio=1−{(emission ratio×F100%−C100%)/[C0%−C100%+emission ratio×(F100%−F0%)]}×100;
(§7) Inhibition rate=100×(1−compound phosphorylation ratio/negative control phosphorylation ratio).
(§8) IC50 values were calculated by using GraphPad Prism 5.0 software.

The target of test [3] is T3, TRKA (Homo sapiens, UniProt P04629).
T3 construct: purchased life technologies PV3144
T3 sequence (P04629 440-796 limits assumed): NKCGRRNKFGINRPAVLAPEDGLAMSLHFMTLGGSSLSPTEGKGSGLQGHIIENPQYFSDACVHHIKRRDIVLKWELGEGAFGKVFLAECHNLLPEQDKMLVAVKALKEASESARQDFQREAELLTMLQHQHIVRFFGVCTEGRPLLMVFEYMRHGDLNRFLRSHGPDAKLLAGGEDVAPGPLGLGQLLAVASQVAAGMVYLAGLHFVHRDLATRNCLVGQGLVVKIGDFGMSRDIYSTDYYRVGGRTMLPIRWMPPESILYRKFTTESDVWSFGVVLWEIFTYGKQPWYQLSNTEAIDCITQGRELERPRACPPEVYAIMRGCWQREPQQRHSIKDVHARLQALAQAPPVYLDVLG
The test is described as follows: Z′-LYTE kinase activity assay, TRKA. The following applies: ATP 400 uM. It is filed as biochemical.
Description: as §3, §4, §5, §6, §7, §8

Test [4] has as its target T4, TRKC (Homo sapiens, UniProt Q16288).
T4 construct: purchased life technologies PV3617
The test is described as follows: Z′-LYTE kinase activity assay, TRKC. The following applies: ATP 50 uM. The class given is biochemical.
Description: as §3, §4, §5, §8

Test [5] has as its target T5, BaF3-CD74-NTRK1 (Homo sapiens, UniProt P04629).
T5 construct: fused on or other part: P04233 (HLA class II histocompatibility antigen gamma chain)
The test is described as follows: Cell proliferation inhibition (CCK-8), BaF3-CD74-NTRK1 stable strain. The class given is cell-based, mouse. The following applies: BaF3-CD74-NTRK1, 72 hours. As for the experimental part:
as §1, §2

Test [6] deals with T6, BaF3-ETV6-NTRK2 (Homo sapiens, UniProt Q16620).
T6 construct: fused on or other part: P41212 (Transcription factor ETV6)
T6 sequence (Q16620 538-822 limits assumed): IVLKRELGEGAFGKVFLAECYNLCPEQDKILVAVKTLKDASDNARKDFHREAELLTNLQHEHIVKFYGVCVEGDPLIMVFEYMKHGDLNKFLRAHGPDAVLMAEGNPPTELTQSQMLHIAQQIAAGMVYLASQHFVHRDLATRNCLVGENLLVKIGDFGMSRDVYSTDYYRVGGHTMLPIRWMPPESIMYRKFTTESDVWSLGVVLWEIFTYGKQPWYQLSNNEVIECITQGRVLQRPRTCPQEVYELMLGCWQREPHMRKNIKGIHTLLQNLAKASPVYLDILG
The test is described as follows: Cell proliferation inhibition (CCK-8), BaF3-ETV6-NTRK2 stable strain. The class given is cell-based, mouse. The following applies: BaF3-ETV6-NTRK2, 72 hours. On the procedure:
as §1, §2

The structures appear in SMILES notation.

T4 sequence (Q16288 32-839): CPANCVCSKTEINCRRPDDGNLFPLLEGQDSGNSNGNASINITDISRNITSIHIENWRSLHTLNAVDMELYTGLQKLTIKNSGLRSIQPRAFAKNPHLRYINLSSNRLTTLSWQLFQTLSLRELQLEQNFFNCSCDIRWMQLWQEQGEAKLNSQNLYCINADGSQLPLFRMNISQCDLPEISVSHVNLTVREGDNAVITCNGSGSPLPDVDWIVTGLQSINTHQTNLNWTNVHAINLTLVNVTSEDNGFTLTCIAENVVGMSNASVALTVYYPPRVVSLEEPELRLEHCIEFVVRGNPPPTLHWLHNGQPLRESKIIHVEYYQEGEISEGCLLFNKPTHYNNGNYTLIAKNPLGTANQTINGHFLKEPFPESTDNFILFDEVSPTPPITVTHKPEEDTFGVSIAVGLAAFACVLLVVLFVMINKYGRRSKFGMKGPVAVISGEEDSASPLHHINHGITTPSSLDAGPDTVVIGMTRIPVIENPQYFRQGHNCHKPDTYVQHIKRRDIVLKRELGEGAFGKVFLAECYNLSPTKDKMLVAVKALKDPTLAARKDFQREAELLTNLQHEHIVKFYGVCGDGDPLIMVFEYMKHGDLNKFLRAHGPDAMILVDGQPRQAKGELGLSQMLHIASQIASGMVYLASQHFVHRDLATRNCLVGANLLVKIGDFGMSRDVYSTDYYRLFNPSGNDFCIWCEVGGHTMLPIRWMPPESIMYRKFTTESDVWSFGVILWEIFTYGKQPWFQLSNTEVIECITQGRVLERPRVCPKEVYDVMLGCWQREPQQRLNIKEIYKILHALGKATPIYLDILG
T1 sequence (Q16288 whole entry, the tested form may be a part): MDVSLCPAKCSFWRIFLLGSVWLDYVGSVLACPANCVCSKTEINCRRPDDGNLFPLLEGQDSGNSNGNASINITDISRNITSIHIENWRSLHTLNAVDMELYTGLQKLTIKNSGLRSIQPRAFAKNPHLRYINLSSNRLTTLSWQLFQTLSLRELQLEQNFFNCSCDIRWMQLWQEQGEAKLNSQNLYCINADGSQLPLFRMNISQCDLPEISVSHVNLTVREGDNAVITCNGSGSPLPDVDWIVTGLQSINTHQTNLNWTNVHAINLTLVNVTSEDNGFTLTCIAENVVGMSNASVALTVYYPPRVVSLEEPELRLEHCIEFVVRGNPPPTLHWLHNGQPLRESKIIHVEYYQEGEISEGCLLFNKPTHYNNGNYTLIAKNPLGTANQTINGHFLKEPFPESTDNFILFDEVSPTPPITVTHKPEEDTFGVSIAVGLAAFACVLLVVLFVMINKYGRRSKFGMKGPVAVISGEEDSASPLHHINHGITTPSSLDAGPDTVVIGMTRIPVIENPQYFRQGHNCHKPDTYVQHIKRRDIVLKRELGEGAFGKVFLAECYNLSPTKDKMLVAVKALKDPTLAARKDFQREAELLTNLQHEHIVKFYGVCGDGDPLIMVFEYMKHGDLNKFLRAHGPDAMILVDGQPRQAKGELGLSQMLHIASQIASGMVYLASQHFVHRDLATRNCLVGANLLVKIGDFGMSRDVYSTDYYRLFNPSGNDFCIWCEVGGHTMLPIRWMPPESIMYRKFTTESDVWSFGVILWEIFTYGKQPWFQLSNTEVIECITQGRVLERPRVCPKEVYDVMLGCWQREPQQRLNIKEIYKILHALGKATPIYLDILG
T5 sequence (P04629 510-796 limits assumed): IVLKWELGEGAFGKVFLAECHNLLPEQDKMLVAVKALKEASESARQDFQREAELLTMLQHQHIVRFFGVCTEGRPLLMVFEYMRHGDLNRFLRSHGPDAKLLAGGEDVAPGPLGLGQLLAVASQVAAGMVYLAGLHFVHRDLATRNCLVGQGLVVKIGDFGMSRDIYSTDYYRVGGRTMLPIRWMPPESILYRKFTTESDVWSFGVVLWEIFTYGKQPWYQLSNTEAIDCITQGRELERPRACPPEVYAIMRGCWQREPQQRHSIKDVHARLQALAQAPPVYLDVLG

As a reminder, the IC50 is the concentration that gives 50% inhibition. Take `Fc1cc(F)cc(Cc2ccc3[nH]nc(C#Cc4ccccn4)c3c2)c1` [CCB-484, 5-(3,5-difluorobenzyl)-3-(pyridin-2-ylethynyl)-1H-indazole]: the IC50 in test [1] worked out at 477 nM; in test [2], 83.8 nM; in test [3], 34 nM; in test [4], 11.8 nM; in test [5], 820 nM; in test [6] it was 1970 nM.

With `Fc1cc(F)cc(Cc2ccc3[nH]nc(/C=C/c4ccccn4)c3c2)c1` [CCB-489, (E)-5-(3,5-difluorobenzyl)-3-(2-(pyridin-2-yl)vinyl)-1H-indazole], the IC50 was 56.2 nM in test [1]; 14.4 nM in test [2]; 4.6 nM in test [3]; 2.7 nM in test [4]; 146 nM in test [5]; 165 nM in test [6].

On to `Fc1cc(F)cc(Cc2ccc3[nH]nc(/C=C/c4cccnc4)c3c2)c1` [DYX-03, (E)-5-(3,5-difluorobenzyl)-3-(2-(pyridin-3-yl)vinyl)-1H-indazole], for which the IC50 in test [1] worked out at 75.2 nM; in test [2], 10.9 nM; in test [3], 4 nM; in test [4], 8.6 nM; in test [5], 126 nM; in test [6] it was 157 nM.

`Fc1cc(F)cc(Cc2ccc3[nH]nc(/C=C/c4cccs4)c3c2)c1` [DYX-04, (E)-5-(3,5-difluorobenzyl)-3-(2-(thiophen-2-yl)vinyl)-1H-indazole]: the IC50 in test [1] is 240 nM; in test [2], 32.4 nM; in test [3], 21.8 nM; in test [4] it was 5.1 nM; in test [5], 174 nM; in test [6] it was 728 nM.

Regarding `Fc1cc(F)cc(Cc2ccc3[nH]nc(/C=C/c4cnccn4)c3c2)c1` [DYX-05, (E)-5-(3,5-difluorobenzyl)-3-(2-(pyrazin-2-yl)vinyl)-1H-indazole], the IC50 in test [1] was 419 nM; in test [2], 10.9 nM; in test [3], 1.6 nM; in test [4] it was 6 nM; in test [5], 580 nM; in test [6] it was 678 nM.

For `Fc1cc(F)cc(Cc2ccc3[nH]nc(/C=C/c4ccc5ccccc5n4)c3c2)c1` [DYX-06, (E)-2-(2-(5-(3,5-difluorobenzyl)-1H-indazol-3-yl)vinyl)quinoline], the IC50 in test [1] was 492 nM; in test [2], 87.1 nM; in test [3], 14.1 nM; in test [4], 77.4 nM; in test [5], 640 nM; in test [6] it was 723 nM.

As for `Fc1cc(F)cc(Nc2ccc3[nH]nc(/C=C/c4ccccn4)c3c2)c1` [DYX-105, (E)-N-(3,5-difluorophenyl)-3-(2-(pyridin-2-yl)vinyl)-1H-indazol-5-amine], the IC50 in test [1] is 2270 nM; in test [2], 353 nM; in test [4], 226 nM; in test [6], 2620 nM.

Turning to `Fc1cc(F)cc(C#Cc2ccc3[nH]nc(/C=C/c4ccccn4)c3c2)c1` [DYX-183, (E)-5-((3,5-difluorophenyl)ethynyl)-3-(2-(pyridin-2-yl)vinyl)-1H-indazole], the IC50 in test [1] was above 10000 nM; in test [2] it was above 1000 nM; in test [3], 598 nM; in test [5] it was above 10000 nM; in test [6], above 10000 nM.

Consider `Fc1cc(Cl)cc(Cc2ccc3[nH]nc(/C=C/c4ccccn4)c3c2)c1` [Example D02F01, (E)-5-(3-chloro-5-fluorobenzyl)-3-(2-(pyridin-2-yl)vinyl)-1H-indazole], for which the IC50 in test [1] is 151 nM; in test [5], 204 nM; in test [6], 362 nM.

Regarding `COc1cc(F)cc(Cc2ccc3[nH]nc(/C=C/c4ccccn4)c3c2)c1` [Example D05F01, (E)-5-(3-fluoro-5-methoxybenzyl)-3-(2-(pyridin-2-yl)vinyl)-1H-indazole], the concentration for half-maximal inhibition (IC50) was 367 nM in test [1], 203 nM in test [5] and 462 nM in test [6].

As for `Clc1cc(Cl)cc(Cc2ccc3[nH]nc(/C=C/c4ccccn4)c3c2)c1` [Example D06F01, (E)-5-(3,5-dichlorobenzyl)-3-(2-(pyridin-2-yl)vinyl)-1H-indazole], the IC50 in test [1] was 851 nM; in test [5], 564 nM; in test [6], above 10000 nM.

For `Cc1cc(C)cc(Cc2ccc3[nH]nc(/C=C/c4ccccn4)c3c2)c1` [Example D07F01, (E)-5-(3,5-dimethylbenzyl)-3-(2-(pyridin-2-yl)vinyl)-1H-indazole], the values for the IC50 in test [1], in test [5] and in test [6] were 2040 nM, 2310 nM and 3020 nM, respectively.

For the compound `COc1ccc(F)cc1Cc1ccc2[nH]nc(/C=C/c3ccccn3)c2c1` [Example D09F01, (E)-5-(5-fluoro-2-methoxybenzyl)-3-(2-(pyridin-2-yl)vinyl)-1H-indazole], the IC50 amounted to 18.1 nM in test [1], 40.6 nM in test [5] and 56.1 nM in test [6].

`Cn1cc(/C=C/c2n[nH]c3ccc(NS(=O)(=O)c4cc(F)cc(F)c4)cc23)cn1` [Example D5217, (E)-3,5-difluoro-N-(3-(2-(1-methyl-1H-pyrazol-4-yl)vinyl)-1H-indazol-5-yl)benzenesulfonamide]: the IC50 is 125 nM in test [1], 90.9 nM in test [5] and 171 nM in test [6].

On to `CCn1cc(/C=C/c2n[nH]c3ccc(NS(=O)(=O)c4cc(F)cc(F)c4)cc23)cn1` [Example D5218, (E)-3,5-difluoro-N-(3-(2-(1-ethyl-1H-pyrazol-4-yl)vinyl)-1H-indazol-5-yl)benzenesulfonamide], for which the IC50 stood at 14.1 nM in test [1], 10.6 nM in test [5] and 19.1 nM in test [6].

Consider `O=S(=O)(Nc1ccc2[nH]nc(/C=C/c3cn[nH]c3)c2c1)c1cc(F)cc(F)c1` [Example D5220, (E)-3,5-difluoro-N-(3-(2-(1H-pyrazol-4-yl)vinyl)-1H-indazol-5-yl)benzenesulfonamide], for which the IC50 in test [1] came to 175 nM; in test [5], 120 nM; in test [6] it was 215 nM.

For the compound `O=S(=O)(Nc1ccc2[nH]nc(/C=C/c3cnn(CCO)c3)c2c1)c1cc(F)cc(F)c1` [Example D5221, (E)-3,5-difluoro-N-(3-{2-[1-(2-hydroxyl-ethyl)-1H-pyrazol-4-yl]-vinyl}-1H-indazol-5-yl)-benzenesulfonamide], the figures for the IC50 in test [1], in test [5] and in test [6] were 128 nM, 144 nM and 196 nM, respectively.

As for `O=S(=O)(c1cc(F)cc(F)c1)c1ccc2[nH]nc(/C=C/c3ccncc3)c2c1` [Example E01F02, (E)-5-((3,5-difluorophenyl)sulfonyl)-3-(2-(pyridin-4-yl)vinyl)-1H-indazole], the results for the 50% inhibitory concentration (IC50) in test [1], in test [5] and in test [6] were 40.7 nM, 18.9 nM and 133 nM, respectively.

Regarding `O=S(=O)(c1cc(F)cc(F)c1)c1ccc2[nH]nc(/C=C/c3ccccc3)c2c1` [Example E01F07, (E)-5-((3,5-difluorophenyl)sulfonyl)-3-styryl-1H-indazole], the IC50 in test [1] is 92.9 nM; in test [5], 35.8 nM; in test [6], 441 nM.

Take `Cc1ccccc1/C=C/c1n[nH]c2ccc(S(=O)(=O)c3cc(F)cc(F)c3)cc12` [Example E01F08, (E)-5-((3,5-difluorophenyl)sulfonyl)-3-(2-methylstyryl)-1H-indazole]: the IC50 in test [1] worked out at 82.9 nM; in test [5], 43.8 nM; in test [6], 220 nM.

On to `O=S(=O)(c1cc(F)cc(F)c1)c1ccc2[nH]nc(/C=C/c3ccccc3F)c2c1` [Example E01F10, (E)-5-((3,5-difluorophenyl)sulfonyl)-3-(2-fluorostyryl)-1H-indazole], for which the IC50 was 156 nM in test [1], 68.9 nM in test [5] and 610 nM in test [6].

(Values after patent publication US20220281821A1, “INDAZOLE COMPOUNDS AND THEIR PHARMACEUTICAL COMPOSITIONS” (Jinan University, priority 2019, published 2022).)
